Results reported in article PMC12775434, “Ultra-large virtual screening unveils potent agonists of the neuromodulatory orphan receptor GPR139” (Nature Communications, 2025).
Several values for one entry are separate records, joined by “and”; a condition that tells them apart may be missing. Equal values may be shown once.

What was measured:
GPR139 (Gi3 activation) = molecular target: T1, GPR139 (Gi3 activation) (Homo sapiens, UniProt Q6DWJ6); assay: BRET G protein activation (dissociation) assay, Gi3, HEK293A; format: cell-based; conditions: for G protein activation, Gi3: individual replicates, listed as JNJ (S)
T1 construct: expressed in transfected cells; host or cells: HEK293A (transient, Lipofectamine 2000)
T1 sequence (Q6DWJ6 1-353): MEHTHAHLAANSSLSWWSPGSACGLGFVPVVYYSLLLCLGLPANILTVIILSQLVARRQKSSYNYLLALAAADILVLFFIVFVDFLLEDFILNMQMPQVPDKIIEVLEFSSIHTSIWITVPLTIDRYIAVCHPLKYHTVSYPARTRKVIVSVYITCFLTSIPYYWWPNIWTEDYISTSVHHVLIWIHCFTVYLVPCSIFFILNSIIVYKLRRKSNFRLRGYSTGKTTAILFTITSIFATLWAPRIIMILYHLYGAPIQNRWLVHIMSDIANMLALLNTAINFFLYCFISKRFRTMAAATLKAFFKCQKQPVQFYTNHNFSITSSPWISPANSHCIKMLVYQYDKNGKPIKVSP
Description: (§1) Primary screening and pharmacological characterization of compounds were performed using a CHO-K1 cell line that stably expresses human GPR139 (GPR139-CHOk1). The GPR139-CHOk1 cell line was kindly provided by H. Lundbeck A/S, Denmark[24]. GPR139-CHOk1 cells were grown in Ham’s F-12 Kaighn’s Modification Medium (ThermoFisher #21127030) supplemented with 10% dialyzed fetal bovine serum (US origin, ThermoFisher #26400044), 100 units/mL Penicillin-Streptomycin (ThermoFisher #15140122), and 1 mg/mL Geneticin (ThermoFisher #11811031). […] M1R-CHOk1 cells were purchased from The Missouri S&T cDNA Resource Center (#CEM100TN00). M1R-CHOk1 cells were grown in Ham’s F12 Medium (ThermoFisher #21765029) supplemented with 10% fetal bovine serum (Brazilian origin, ThermoFisher #10270106), 100 units/mL Penicillin-Streptomycin, and 0.25 mg/mL Geneticin. HEK293A cells transiently transfected with GPR139 were used for additional pharmacological assessment of signaling pathways activated by GPR139. HEK239A cells were generously provided by Dr. Asuka Inoue, Tohoku University, Japan. HEK293A cells were grown in Dulbecco’s Modified Eagle Medium (ThermoFisher #31966047) supplemented with 10% dialyzed fetal bovine serum and 100 units/mL Penicillin-Streptomycin. Cell lines were maintained at 37 °C in humidified incubator equilibrated with 5% CO2.
(§2) The G protein dissociation assay developed by the lab of Kirill A. Martemyanov was used to measure the coupling of multiple G proteins by GPR139[57]. The assay was performed as described previously with minor modifications. HEK293A cells were reverse transfected 20–24 h prior to assay. 50,000 cells were plated in each well of white opaque tissue culture treated 96-well plates (PerkinElmer #6005680) previously coated with poly-D-lysine. Transfection solutions were prepared as described, and 10 µL transfection solution was mixed with 100 µL cells in each well. The cells in each well were transfected with 18.9 ng GPR139, 6.3 ng Venus 1-155 Gγ2, 6.3 ng Venus 159-239 Gβ1, 6.3 ng masGRK3ct-NanoLuc and 12.6 ng Gαi2, 12.6 ng Gαi3, 12.6 ng GαoA, 12.6 ng Gαq or 25.2 ng Gα12 using 375 nL Lipofectamine 2000 Transfection Reagent. Transfections with Gαq and Gα12 contained 6.3 ng DNA of the active subunit S1 of pertussis toxin (PTX-S1). Each transfection was normalized to 150 ng total DNA with pcDNA3.1. The BRET biosensors were a kind gift from the Martemyanov lab. On the day of the experiment the cells were washed with HEPES buffer. Test compounds were diluted in HEPES buffer from DMSO stocks (final DMSO concentration of maximally 0.3%). NanoLuc Luciferase substrate NanoGlo—furimazine (Promega #N1120) was diluted 1000-fold (final) in HEPES buffer. NanoGlo and test compounds were added, and measurements were performed after 10 s for Gi3, 15 s for Gi2 and GoA, 20 s for Gq, and 90 s for G12—the timepoint where maximal signal occurred with each G protein, ensuring proper determination of the potency for the G protein coupling. Simultaneous dual emission was measured at 535 nm and 475 nm on LUMIstar Omega Microplate Reader (BMG Labtech) at room temperature. The BRET ratio of 535 nm/475 nm (Venus/NanoLuc), reflecting the dissociation of the G protein heterotrimer, was used to determine the G protein activation. The basal BRET ratio obtained with buffer condition was subtracted from the absolute BRET ratio at a given test compound concentration, and the responses were normalized to the one obtained with 10 µM JNJ-63533054 for the activation of Gi2.
(§3) Pharmacological data and statistical analyses were performed in GraphPad Prism v9–10 (Graphpad Software Inc., San Diego, CA), which are also specifically described in the figure and table legends. […]

GPR139 (GoA activation) = molecular target: T2, GPR139 (GoA activation) (Homo sapiens, UniProt Q6DWJ6); assay: BRET G protein activation (dissociation) assay, GoA, HEK293A; format: cell-based; conditions: for G protein activation, GoA: individual replicates, listed as JNJ (S)
T2 construct: expressed in transfected cells; host or cells: HEK293A (transient, Lipofectamine 2000)
T2 sequence (Q6DWJ6 1-353): T1 sequence (Q6DWJ6 1-353)
Description: as §1, §2, §3

[1] = HEK293-A, normalized to JNJ-63533054 (JNJ(S))

Emax (GPR139 (Gi3 activation); [1]): 56 ± 4%
EC50 (GPR139 (Gi3 activation); Supplementary Table 6, read-out: pEC50 Gi3 (converted)): 100 nM
Emax (GPR139 (GoA activation); [1]): 114 ± 2%
EC50 (GPR139 (GoA activation); Supplementary Table 6): 79.4 nM
Structure (SMILES): CC(NC(=O)CNC(=O)c1cccc(Cl)c1)c1ccccc1 (centres unmarked) [JNJ-63533054, reference compound]
G protein activation, Gi3 (GPR139 (Gi3 activation); log [compound] M -4.5): 63 % of JNJ-63533054 at Gi2 and 48 % of JNJ-63533054 at Gi2 and 54 % of JNJ-63533054 at Gi2
G protein activation, Gi3 (GPR139 (Gi3 activation); log [compound] M -5.0): 59 % of JNJ-63533054 at Gi2 and 44 % of JNJ-63533054 at Gi2 and 57 % of JNJ-63533054 at Gi2
G protein activation, Gi3 (GPR139 (Gi3 activation); log [compound] M -5.5): 57 % of JNJ-63533054 at Gi2 and 41 % of JNJ-63533054 at Gi2 and 51 % of JNJ-63533054 at Gi2
G protein activation, Gi3 (GPR139 (Gi3 activation); log [compound] M -6.0): 52 % of JNJ-63533054 at Gi2 and 39 % of JNJ-63533054 at Gi2 and 42 % of JNJ-63533054 at Gi2
G protein activation, Gi3 (GPR139 (Gi3 activation); log [compound] M -6.5): 48 % of JNJ-63533054 at Gi2 and 28 % of JNJ-63533054 at Gi2 and 40 % of JNJ-63533054 at Gi2
G protein activation, Gi3 (GPR139 (Gi3 activation); log [compound] M -7.0): 37 % of JNJ-63533054 at Gi2 and 22 % of JNJ-63533054 at Gi2 and 29 % of JNJ-63533054 at Gi2
G protein activation, Gi3 (GPR139 (Gi3 activation); log [compound] M -7.5): 26 % of JNJ-63533054 at Gi2 and 11 % of JNJ-63533054 at Gi2 and 24 % of JNJ-63533054 at Gi2
G protein activation, Gi3 (GPR139 (Gi3 activation); log [compound] M -8.0): 10 % of JNJ-63533054 at Gi2 and 5.6 % of JNJ-63533054 at Gi2 and 14 % of JNJ-63533054 at Gi2
G protein activation, GoA (GPR139 (GoA activation); log [compound] M -4.5): 119 % of JNJ-63533054 at Gi2 (2×) and 112 % of JNJ-63533054 at Gi2
G protein activation, GoA (GPR139 (GoA activation); log [compound] M -5.0): 117 % of JNJ-63533054 at Gi2 (2×) and 106 % of JNJ-63533054 at Gi2
G protein activation, GoA (GPR139 (GoA activation); log [compound] M -5.5): 113 % of JNJ-63533054 at Gi2 and 106 % of JNJ-63533054 at Gi2 (2×)
G protein activation, GoA (GPR139 (GoA activation); log [compound] M -6.0): 108 % of JNJ-63533054 at Gi2 and 94 % of JNJ-63533054 at Gi2 and 102 % of JNJ-63533054 at Gi2
G protein activation, GoA (GPR139 (GoA activation); log [compound] M -6.5): 97 % of JNJ-63533054 at Gi2 and 82 % of JNJ-63533054 at Gi2 and 91 % of JNJ-63533054 at Gi2
G protein activation, GoA (GPR139 (GoA activation); log [compound] M -7.0): 74 % of JNJ-63533054 at Gi2 and 64 % of JNJ-63533054 at Gi2 and 65 % of JNJ-63533054 at Gi2
G protein activation, GoA (GPR139 (GoA activation); log [compound] M -7.5): 43 % of JNJ-63533054 at Gi2 and 34 % of JNJ-63533054 at Gi2 and 33 % of JNJ-63533054 at Gi2
G protein activation, GoA (GPR139 (GoA activation); log [compound] M -8.0): 17 % of JNJ-63533054 at Gi2 and 12 % of JNJ-63533054 at Gi2 and 13 % of JNJ-63533054 at Gi2
